Source: patent publication US6610649B2, “Insulin C-peptides” (Creative Peptides Sweden AB, priority 1996, dated 2003)

Key:
[1] = system: Na^+K^+ATPase; experiment: Stimulation of Na+K+ATPase activity of rat renal tubule cells (microdissected proximal convoluted tubules, 32P-ATP with or without ouabain); type: cell-based; settings: for activity of peptides containing D-amino acid isomers (in words): Na^+K^+ATPase of rat renal tubule segments; for relative stimulatory activity on Na^+K^+ATPase activity: 5-10^−7 M peptide, rat C-peptide 1 at the same concentration set at 100%, tubules incubated 30 minutes at room temperature; for stimulation of Na^+K^+ATPase activity compared with whole C-peptide (in words): renal tubule cells in vitro
Description: Fragments of the invention have been proven to stimulate Na^+K^+ATPase activity to varying extent. […] As much as 90% of the effect is achieved within 3 minutes. […] Combinations of Peptides A-D with Peptides E or F result in a stimulation of the enzyme activity that is greater than that for either peptide alone. For detailed examples of the stimulatory effects of the above peptides, see Example 1, below.
In the case of peptide A certain studies on Na^+K^+ATPase activity, studying the ability of the peptide fragments to stimulate the activity of Na^+K^+ATPase of rat renal tubule segments, have shown that one or more of the central tri-glycine residues may be important, and preferred peptide fragments, where peptide A is concerned, thus include at least one, and more preferably, at least two, of the central tri-glycine residues. Thus, in addition to peptides B, C and D mentioned above, representative exemplary peptide fragments include GGGPGAG (SEQ ID NO. 8), GGGPG (SEQ ID No. 9), GGGP (SEQ ID NO. 10), GGP and GGPG (SEQ ID NO. 11).
The stimulatory effect of Peptides A-F on Na^+K^+ATPase activity of rat renal tubule cells was examined. Single proximal convoluted tubules were prepared from rat kidneys by micro-dissection. The tubules were incubated for 30 minutes at room temperature with either of Peptides A-F or rat C-peptide 1. Na^+K^+ATPase activity was then measured following exposure of the tubules to hypotonic shock and incubation for 15 minutes in a medium containing ^32P-ATP in the presence or absence of oubain.
The stimulatory activity of 5-10^−7 M rat C-peptide 1 was set at 100%. For the same concentration of Peptides A-F the following relative activities were obtained: […]

[2] = system: cell surface of human renal tubule cells (C-peptide binding site); experiment: Binding of rhodamine-labelled C-peptide to cultured human renal tubule cells, by fluorescence correlation spectroscopy; settings: for effect of preincubation on binding of fluorescently labelled C-peptide (in words): preincubation of cells with the unlabelled peptide
Description: When fluorescently labelled C-peptide is incubated with cells it binds to the cell surface. […] For a detailed example of the binding of Fragment E see Example 28, below.
The specific binding of Peptide E to the cell surface is illustrated as follows. Human biosynthetic C-peptide (Eli-Lilly, Inc., Indianapolis, USA) was labelled with tetramethylrhodamine using the activated reagent tetramethylrhodamine succinimidyl ester (FluoReporter® Protein labelling kit, Art. no. F-6163; Molecular Probes Europe BV, Leiden, Netherlands). The coupling reaction was performed at pH 8.3 (0.1 M NaHCO3 buffer) with a five-fold stoichiometrical excess of activated reagent to C-peptide. The tetramethylrhodamine group has absorption/emission maxima at 555/580 nm, respectively and is incorporated in the N-terminus of the C-peptide. Labelled C-peptides were purified by gel filtration (desalting against 50 mM phosphate buffer, 0.1 M NaCl, pH 7.4) on a NAP-5 column; Pharmacia Biotech Uppsala, Sweden) and subsequently by preparative reverse phase chromatography (250 mm Kromasil C8 column, diam. 4.6 mm, 7 μm particle size, 10 nm pore size, Eka-Nobel, Surte, Sweden) using a 1090 Hewlett Packard HPLC chromatography system (Grenoble, France) (FIG. 1). Eluted material was immediately adjusted to pH 8 by addition of ammonia and subsequently lyophilized.
Cultured human renal tubule cells (proximal convoluted tubules, PCT) were incubated with the rhodamine labelled C-peptide synthesized as described above. The cells were prepared from the healthy part of a human kidney removed surgically because of hypernephroma. The outer 150 μm of the renal cortex was removed in a microtome and incubated in a collagenase solution (0.05%) at 37° C. for 15 minutes. A tissue suspension was centrifuged and rinsed twice with 0.01% soybean trypsin inhibitor-solution (Gibco Laboratories, Grand Island, N.Y., USA) and a concentrate of PCT fragments and PCT cells were plated onto glass cover slips. The cells were cultured in Dulbecco's Modified Eagle's Medium [DMEM, 20 mmol/l 4-(2-hydroxyethyl)-1-piperazineethane sulphoric acid (Hepes), 24 mmol/l NaHCO3 50,000 IU/l penicillin and 50 mg/l streptomycin, pH 7.4] with 10% fetal bovine serum (Gibco) in an incubator at 37° C. with 95% O2, and 5% CO2. After 28 hours in culture the medium was changed to DMEM with 1% fetal bovine serum. The cells were examined approximately 18-36 hours later.
The interaction between C-peptide and the cell surface of the tubule cells was recorded using fluorescence correlation spectroscopy (11). […] In contrast, when the cells were preincubated with 5 μM of Peptide E, C-peptide binding after 50 minutes was no more than 12%.

| Substance | effect of preincubation on binding of fluorescently labelled C-peptide (in words) [2] | relative stimulatory activity on Na^+K^+ATPase activity [1] [%] | also measured |
| --- | --- | --- | --- |
| D,L-LG |  |  | activity of peptides containing D-amino acid isomers (in words) [1]: active |
| D-LG |  |  | activity of peptides containing D-amino acid isomers (in words) [1]: active |
| EAEDLQVGQVELGGGPGAGSLQPLALEGSLQ (N-terminal tetramethylrhodamine label) [C-peptide, human biosynthetic C-peptide (Eli-Lilly)] | prevents binding of the fluorescently labelled C-peptide |  | C-peptide bound to the cell surface ([2]; C-peptide 5 nM, within 50 minutes, no competitor): 92% |
| EGSLQ [Peptide E, C-terminal fragment of human insulin C-peptide] | prevent binding of the fluorescently marked C-peptide | 110±3 | stimulation of Na^+K^+ATPase activity compared with whole C-peptide (in words) [1]: comparable to or greater than that for the whole molecule; C-peptide remaining bound after later addition of the peptide ([2]; C-peptide bound for 50 minutes, then peptide added, within 4 hours): 14%; C-peptide binding after 50 minutes ([2]; cells preincubated with 5 μM of the peptide, C-peptide 5 nM): no more than 12% |
| ELGG [Peptide B, fragment of Peptide A] |  | 36±2 |  |
| ELGGGP [Peptide C, fragment of Peptide A] |  | 46±3 |  |
| ELGGGPGAG [Peptide A, fragment of human insulin C-peptide] |  | 88±3 |  |
| GGPGA [Peptide D, fragment of Peptide A] |  | 65±4 |  |
| GSLQ [Peptide F, fragment of Peptide E] | prevent binding of the fluorescently marked C-peptide | 96±2 | stimulation of Na^+K^+ATPase activity compared with whole C-peptide (in words) [1]: comparable to or greater than that for the whole molecule |
